Laboratory results from ChEMBL document CHEMBL3886260, “Amide or urea containing benzothiazole inhibitors of endothelial lipase” (2015).

target: T1, Endothelial lipase (Homo sapiens, UniProt Q9Y5X9); assay: Biological Assay: Endothelial lipase activity was measured using a fluorescent substrate, A10070, (Invitrogen, CA) doped into an artificial vesicle containing DMPG (Avanti Polar Lipids) as the excipient. Vesicles were prepared by combining 285 uL, of 1 mM DMPG in a 1:1 mixture of MeOH and CHCl3 with 15 uL, of 1 mM A10070 in a 1:1 mixture of MeOH and CHCl3. The mixture was dried under nitrogen and resuspended in 150 uL, of 50 mM HEPES pH 8.0 buffer containing 100 mM NaCl and 0.2 mM EDTA. The sample was allowed to sit at rt for 15 min and then was sonicated 3x4 mins on ice with a Branson Sonicator using duty cycle 1. This preparation provides vesicles with a mole fraction of 0.05 for the FRET substrate.The enzymatic assay was measured using white, opaque 96-well half area plates. Each well contained 60 uL, of assay buffer (50 mM HEPES pH 8.0, 50 mM NaCl and 1 mM CaCl2) and 2 ul of a DMSO solution containing compound of interest. Conditioned media obtained from HT-1080 cells.; type: cell-based
T1 sequence (Q9Y5X9 whole entry): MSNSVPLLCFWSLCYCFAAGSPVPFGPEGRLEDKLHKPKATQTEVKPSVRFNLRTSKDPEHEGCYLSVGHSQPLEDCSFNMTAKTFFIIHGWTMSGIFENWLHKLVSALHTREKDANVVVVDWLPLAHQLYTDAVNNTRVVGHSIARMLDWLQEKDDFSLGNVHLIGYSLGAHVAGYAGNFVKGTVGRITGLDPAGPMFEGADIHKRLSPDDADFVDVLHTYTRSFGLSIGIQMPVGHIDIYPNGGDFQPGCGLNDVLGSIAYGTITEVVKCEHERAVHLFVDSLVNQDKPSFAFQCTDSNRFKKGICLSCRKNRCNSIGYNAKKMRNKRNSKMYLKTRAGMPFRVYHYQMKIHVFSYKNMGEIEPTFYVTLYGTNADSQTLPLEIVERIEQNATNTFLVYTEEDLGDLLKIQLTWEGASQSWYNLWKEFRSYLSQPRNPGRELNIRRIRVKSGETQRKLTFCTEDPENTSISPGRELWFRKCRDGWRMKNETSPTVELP

IC50, < 0.01 µM:
O=C(NC(c1nnc(CS(=O)(=O)O)o1)c1nc2ccc(-c3ccccc3)cc2s1)c1ccc(C(F)(F)F)cc1 (stereo not drawn)
CC(=O)NC(c1nnc(C2CN(C(=O)OC(C)(C)C)C2)o1)c1nc2ccc(-c3ccccc3)cc2s1 (stereo not drawn)
CC(C)(C)OC(=O)NC(c1nnc(CNS(N)(=O)=O)o1)c1nc2ccc(-c3ccccc3)cc2s1 (stereo not drawn)
